Results reported in patent US20260007629A1, “DIETARY BUTYRATE AND ITS USES” (SOCIETE DES PRODUITS NESTLE S.A., priority 2019, published 2026).

Columns and labels:
[1] = test system: rabbit gastric lipase (RGL) followed by porcine pancreatic lipase (PPL); assay: In vitro sequential digestion, SGF followed by SIF, pH-stat; type: in vitro ADME
[2] = target: T1, porcine pancreatic lipase (PPL) (Sus scrofa, UniProt P00591); conditions: pig, 3 h, pH 11.5
T1 sequence (P00591 1-450): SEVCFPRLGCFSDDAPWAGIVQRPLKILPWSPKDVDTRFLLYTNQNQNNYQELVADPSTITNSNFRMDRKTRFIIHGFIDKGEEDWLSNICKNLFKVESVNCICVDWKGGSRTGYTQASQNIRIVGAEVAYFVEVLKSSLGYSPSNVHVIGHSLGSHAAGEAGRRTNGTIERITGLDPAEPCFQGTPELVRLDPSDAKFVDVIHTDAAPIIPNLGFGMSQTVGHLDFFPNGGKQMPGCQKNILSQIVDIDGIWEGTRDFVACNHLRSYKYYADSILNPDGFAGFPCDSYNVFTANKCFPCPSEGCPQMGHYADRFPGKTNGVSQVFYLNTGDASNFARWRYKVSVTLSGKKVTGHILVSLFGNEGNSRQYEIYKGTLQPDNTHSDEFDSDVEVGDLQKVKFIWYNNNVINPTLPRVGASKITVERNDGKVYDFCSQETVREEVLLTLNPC
T1 sequence (P02703 23-112 partner): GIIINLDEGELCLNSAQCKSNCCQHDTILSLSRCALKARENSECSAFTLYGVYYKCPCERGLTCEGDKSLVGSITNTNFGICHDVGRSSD
Text: Because many fatty acids are only partially ionised at pH 6.8, direct titration gives only partial picture of the extent of lipid digestion, instead back titration to pH 11.5 or GC-FAME analysis is required to estimate the full extent of digestion.

[3] = target: T1, porcine pancreatic lipase (PPL); assay: In vitro digestion, simulated intestinal fluid (SIF) model, pH-stat; type: in vitro ADME; design: by porcine pancreatic lipase (from pancreatin); purchased SIGMA-ALDRICH P7585; host or cells: porcine pancreas extract (pancreatin); conditions: SIF alone; emulsion with 200 mg fat, pH 6.8, 37° C.

initial lipolysis rate in SIF compartment ([1]; SGF-SIF digestion (90 min SGF pre-exposure, pH 5.5)): 44.1 ± 8.8 µmol/min
hydrolysis in the stomach / extent of gastric lipolysis ([1]; in words, gastric compartment of the model): extensive hydrolysis in the stomach
lipolysis by gastric lipase ([1]; indicated by decreased total fatty acid release in SIF after RGL pre-exposure): ~60%
extent of digestion [2]: 101.5±0.9%
initial (maximal) rate of lipolysis [3]: 223 ± 59 µmol/min
SMILES: CCCC(=O)OCC(COC(=O)CCC)OC(=O)CCC [tributyrin]
